These results are taken from patent publication US20110044938A1 (NYCOMED GMBH, priority 2006, published 2011).

In experiment [1] the test system is subclones of RKO colon adenocarcinoma cells (RKOp27 or RKOp21) arrested by Ponasterone A. Nature of the experiment: Alamar Blue cell viability assay, cell cycle specific mode of action: cells arrested by ectopic p27Kip1 induced by Ponasterone A versus proliferating cells. Particulars: Homo sapiens, RKO p27 induced (arrested) cells, 10 μM Ponasterone A, 72 hours, value = class bound given in Table A, read-out: −logIC50 RKO p27 induced (arrested) (converted). It counts as cell-based. The protocol:
To determine the cell cycle specific mode of action, subclones of RKO colon adenocarcinoma cells (RKOp27 or RKOp21 as described by Schmidt et al. in Oncogene 19, 2423-2429; 2000) are seeded into 96 well flat bottom plates at a density of 15000 cells per well in a volume of 50 μl per well in DMEM growth medium with 10% FCS containing 10 μM Ponasterone A. 24 hours after seeding the 50 μl each of the compound dilutions in DMEM medium are added into each well of the 96 Well plate. Each compound dilution is tested as quadruplicates. Wells containing untreated control cells are filled with 50 μl DMEM medium containing 1% DMSO. The cells are then incubated with the substances for 72 hours at 37° C. in a humidified athmosphere containing 5% carbon dioxide. To determine the viability of the cells, 10 μl of an Alamar Blue solution (Biosource) are added and the fluorescence was measured at an extinction of 544 nm and an emission of 590 nm. For the calculation of the cell viability the emission value from untreated cells is set as 100% viability and the emission rates of treated cells are set in relation to the values of untreated cells. Viabilities are expressed as % values. Viability is compared of proliferating cells grown in the absence of the inducer Ponasterone A, versus viability of cells arrested by the expression of ectopic p27Kip1 induced by Ponasterone A.
(§1) Representative −log IC50 [mol/l] values for anti-proliferation/cytotoxicity determined in the mentioned assays follow from the following table A, in which the numbers of the compound correspond to the numbers of the examples.
Background: Resazurin is reduced to fluorescent resorufin, in cell work by metabolically active cells.

Experiment [2] deals with RKO (RKOp27) human colon adenocarcinoma cells. The experiment in a line: Alamar Blue cell viability assay, anti-proliferative/cytotoxic activity on proliferating RKO subclones. It counts as cell-based. Particulars: RKOp27, 72 h, RKO p27 uninduced (proliferating) cells, value = class bound given in Table A, read-out: −logIC50 RKO p27 uninduced (proliferating) (converted). As to the method:
The anti-proliferative/cytotoxic activity of the compounds described herein, can be tested on subclones of RKO (RKOp27) human colon adenocarcinoma cells (Schmidt et al., Oncogene 19, 2423-2429; 2000) using the Alamar Blue cell viability assay (described in O'Brien et al. Eur J Biochem 267, 5421-5426, 2000). The compounds are dissolved as 20 mM solutions in dimethylsulfoxide (DMSO) and subsequently diluted in semi-logarithmic steps. DMSO dilutions are further diluted 1:100 into Dulbecco's modified Eagle's medium (DMEM) containing 10% fetal calf serum to a final concentration twice as much as the final concentration in the test. RKO subclones are seeded into 96 well flat bottom plates at a density of 5000 cells per well in a volume of 50 μl per well. 24 hours after seeding the 50 μl each of the compound dilutions in DMEM medium are added into each well of the 96 Well plate. Each compound dilution is tested as quadruplicates. Wells containing untreated control cells are filled with 50 μl DMEM medium containing 1% DMSO. The cells are then incubated with the substances for 72 hours at 37° C. in a hunified atmosphere containing 5% carbon dioxide. To determine the viability of the cells, 10 μl of an Alamar Blue solution (Biosource) are added and the fluorescence is measured at an extinction of 544 nm and an emission of 590 nm. For the calculation of the cell viability the emission value from untreated cells is set as 100% viability and the emission rates of treated cells are set in relation to the values of untreated cells. Viabilities are expressed as % values.
The corresponding IC50 values of the compounds for anti-proliferative/cytotoxic activity are determined from the concentration-effect curves.
as §1

As to `CNC(=O)OC1CCc2c(sc(NC(=O)/C=C/c3cccnc3)c2C#N)C1` (stereo not shown) [Example 20, Methyl-carbamic acid 3-cyano-2-((E)-3-pyridin-3-yl-allanoylamino)-4,5,6,7-tetrahydro-benzo[b]thiophen-6-yl ester], the results for the IC50 in experiment [1] and in experiment [2] were not below 100 µM and not above 0.501 µM, respectively.
The matching figures for `N#Cc1c(NC(=O)/C=C/c2cccnc2)sc2c1CCC(OC(=O)NC1CC1)C2` (stereo not shown) [Example 21, Cyclopropyl-carbamic acid 3-cyano-2-((E)-3-pyridin-3-yl-allanoylamino)-4,5,6,7-tetrahydro-benzo[b]thiophen-6-yl ester]: not below 100 µM and not above 0.501 µM.
For `N#Cc1c(NC(=O)/C=C/c2cccnc2)sc2c1CCC(OC(=O)NCC1CCOCC1)C2` (stereo not shown) [Example 22, (Tetrahydro-pyran-4-ylmethyl)-carbamic acid 3-cyano-2-((E)-3-pyridin-3-yl-allanoylamino)-4,5,6,7-tetrahydro-benzo[b]thiophen-6-yl ester], in that order: not below 100 µM and 0.501 to 2 µM.
For `N#Cc1c(NC(=O)/C=C/c2cccnc2)sc2c1CCC(OC(=O)NCCO)C2` (stereo not shown) [Example 23, (2-Hydroxy-ethyl)-carbamic acid 3-cyano-2-((E)-3-pyridin-3-yl-allanoylamino)-4,5,6,7-tetrahydro-benzo[b]thiophen-6-yl ester], in that order: not below 100 µM and 0.501 to 2 µM.
Consider `N#Cc1c(NC(=O)/C=C/c2cccnc2)sc2c1CCC(OC(=O)NC1CCOCC1)C2` (stereo not shown) [Example 26, (Tetrahydro-pyran-4-yl)-carbamic acid 3-cyano-2-((E)-3-pyridin-3-yl-allanoylamino)-4,5,6,7-tetrahydro-benzo[b]thiophen-6-yl ester], for which the IC50 is not below 100 µM in experiment [1] and 0.501 to 2 µM in experiment [2].
The matching figures for `COCCOC(=O)OC1CCc2c(sc(NC(=O)/C=C/c3cccnc3)c2C#N)C1` (stereo not shown) [Example 27, Carbonic acid 3-cyano-2-((E)-3-pyridin-3-yl-allanoylamino)-4,5,6,7-tetrahydro-benzo[b]thiophen-6-yl ester 2-methoxy-ethyl ester]: not below 100 µM and not above 0.501 µM.
For the molecule `CCOc1ccccc1/C=C/C(=O)Nc1sc2c(c1C#N)CCC(COC(=O)NCCO)C2` (stereo not shown) [Example 28, (2-Hydroxy-ethyl)-carbamic acid 3-cyano-2-[(E)-3-(2-ethoxy-phenyl)-allanoylamino]-4,5,6,7-tetrahydro-benzo[b]thiophen-6-ylmethyl ester], the IC50 was not below 100 µM in experiment [1] and 0.501 to 2 µM in experiment [2].
The matching figures for `N#Cc1c(NC(=O)/C=C/c2cccnc2)sc2c1CCC(COC(=O)NCCO)C2` (stereo not shown) [Example 29, (2-Hydroxy-ethyl)-carbamic acid 3-cyano-2-((E)-3-pyridin-3-yl-allanoylamino)-4,5,6,7-tetrahydro-benzo[b]thiophen-6-ylmethyl ester]: not below 100 µM and 0.501 to 2 µM.
For `N#Cc1c(NC(=O)/C=C/c2cccnc2)sc2c1CCC(COC(=O)NCCn1ccnc1)C2` (stereo not shown) [Example 30, (2-Imidazol-1-yl-ethyl)-carbamic acid-3-cyano-2-((E)-3-pyridin-3-yl-allanoylamino)-4,5,6,7-tetrahydro-benzo[b]thiophen-6-ylmethyl ester], in that order: not below 100 µM and 0.501 to 2 µM.
For `CCOc1ccccc1/C=C/C(=O)Nc1sc2c(c1C#N)CCC(OC(=O)NCCn1ccnc1)C2` (stereo not shown) [Example 31, (2-Imidazol-1-yl-ethyl)-carbamic acid-3-cyano-2-[(E)-3-(2-ethoxy-phenyl)-allanoylamino]-4,5,6,7-tetrahydro-benzo[b]thiophen-6-yl ester], in that order: not below 10 µM and not above 0.501 µM.
Take `CCOc1ccccc1/C=C/C(=O)Nc1sc2c(c1C#N)CCC(COC(=O)NCCn1ccnc1)C2` (stereo not shown) [Example 32, (2-Imidazol-1-yl-ethyl)-carbamic acid 3-cyano-2-[(E)-3-(2-ethoxy-phenyl)-allanoylamino]-4,5,6,7-tetrahydro-benzo[b]thiophen-6-ylmethyl ester]: the IC50 was not below 100 µM in experiment [1] and 0.501 to 2 µM in experiment [2].
For `N#Cc1c(NC(=O)/C=C/c2cccnc2)sc2c1CCC(OC(=O)NCc1cccnc1)C2` (stereo not shown) [Example 35, Pyridin-3-ylmethyl-carbamic acid 3-cyano-2-((E)-3-pyridin-3-yl-allanoylamino)-4,5,6,7-tetrahydro-benzo[b]thiophen-6-yl ester], in that order: not below 100 µM and 0.501 to 2 µM.
With `N#Cc1c(NC(=O)/C=C/c2cccnc2)sc2c1CCC(OC(=O)NCCc1cccnc1)C2` (stereo not shown) [Example 36, (2-Pyridin-3-yl-ethyl)-carbamic acid 3-cyano-2-((E)-3-pyridin-3-yl-allanoylamino)-4,5,6,7-tetrahydro-benzo[b]thiophen-6-yl ester], the IC50 in experiment [1] was not below 50.1 µM; in experiment [2], 0.501 to 2 µM.
For `N#Cc1c(NC(=O)/C=C/c2cccnc2)sc2c1CCC(OC(=O)NCCn1ccnc1)C2` (stereo not shown) [Example 37, (2-Imidazol-1-yl-ethyl)-carbamic acid 3-cyano-2-((E)-3-pyridin-3-yl-allanoylamino)-4,5,6,7-tetrahydro-benzo[b]thiophen-6-yl ester], the IC50 is not below 100 µM in experiment [1] and 0.501 to 2 µM in experiment [2].
Turning to `Cn1cncc1CNC(=O)OC1CCc2c(sc(NC(=O)/C=C/c3cccnc3)c2C#N)C1` (stereo not shown) [Example 38, (3-Methyl-3H-imidazol-4-ylmethyl)-carbamic acid 3-cyano-2-((E)-3-pyridin-3-yl-allanoylamino)-4,5,6,7-tetrahydro-benzo[b]thiophen-6-yl ester], the results for the IC50 in experiment [1] and in experiment [2] were not below 100 µM and 0.501 to 2 µM, respectively.
For `N#Cc1c(NC(=O)/C=C/c2cccnc2)sc2c1CCC(OC(=O)NCc1ncc[nH]1)C2` (stereo not shown) [Example 39, (1H-Imidazol-2-ylmethyl)-carbamic acid 3-cyano-2-((E)-3-pyridin-3-yl-allanoylamino)-4,5,6,7-tetrahydro-benzo[b]thiophen-6-yl ester], in that order: not below 100 µM and 0.501 to 2 µM.
For `Cn1nccc1CNC(=O)OC1CCc2c(sc(NC(=O)/C=C/c3cccnc3)c2C#N)C1` (stereo not shown) [Example 40, (2-Methyl-2H-pyrazol-3-ylmethyl)-carbamic acid 3-cyano-2-((E)-3-pyridin-3-yl-allanoylamino)-4,5,6,7-tetrahydro-benzo[b]thiophen-6-yl ester], in that order: not below 100 µM and not above 0.501 µM.
For `Cn1cc(CNC(=O)OC2CCc3c(sc(NC(=O)/C=C/c4cccnc4)c3C#N)C2)cn1` (stereo not shown) [Example 41, (1-Methyl-1H-pyrazol-4-ylmethyl)-carbamic acid 3-cyano-2-((E)-3-pyridin-3-yl-allanoylamino)-4,5,6,7-tetrahydro-benzo[b]thiophen-6-yl ester], in that order: not below 100 µM and not above 0.501 µM.
On to `Cc1cc(CNC(=O)OC2CCc3c(sc(NC(=O)/C=C/c4cccnc4)c3C#N)C2)no1` (stereo not shown) [Example 42, (5-Methyl-isoxazol-3-ylmethyl)-carbamic acid 3-cyano-2-((E)-3-pyridin-3-yl-allanoylamino)-4,5,6,7-tetrahydro-benzo[b]thiophen-6-yl ester], for which the results for the IC50 in experiment [1] and in experiment [2] were not below 100 µM and 0.501 to 2 µM, respectively.
For `Cn1cncc1CNC(=O)OCC1CCc2c(sc(NC(=O)/C=C/c3cccnc3)c2C#N)C1` (stereo not shown) [Example 43, (3-Methyl-3H-imidazol-4-ylmethyl)-carbamic acid 3-cyano-2-((E)-3-pyridin-3-yl-allanoylamino)-4,5,6,7-tetrahydro-benzo[b]thiophen-6-ylmethyl ester], in that order: not below 100 µM and not above 0.501 µM.
